In US20170173002A1, “Compositions and Methods for Treating an Infection” (CMPD LICENSING, LLC, priority 2015, published 2017):

Tests used:
[1] = system: Bacteroides fragilis; experiment: Expected efficacy of antibiotic agents; conditions: expected efficacy against Bacteroides fragilis
[2] = system: Klebsiella oxytoca; experiment: Expected efficacy of antibiotic agents; conditions: expected efficacy against Klebsiella oxytoca
[3] = system: Streptococcus agalactiae; experiment: Expected efficacy of antibiotic agents; conditions: expected efficacy against Streptococcus agalactiae
[4] = system: Clostridium difficile; experiment: Expected efficacy of antibiotic agents; conditions: expected efficacy against Clostridium difficile
[5] = system: Viridans group streptococci; experiment: Expected efficacy of antibiotic agents; conditions: expected efficacy against Viridans group streptococci
[6] = system: Proteus vulgaris; experiment: Expected efficacy of antibiotic agents; conditions: expected efficacy against Proteus vulgaris
[7] = system: Shigella boydii; experiment: Expected efficacy of antibiotic agents; conditions: expected efficacy against Shigella boydii
[8] = system: Chlamydia psittaci; conditions: expected efficacy against Chlamydia psittaci
[9] = system: Pseudomonas aeruginosa; experiment: Expected efficacy of antibiotic agents; conditions: expected efficacy against Pseudomonas aeruginosa
[10] = system: Enterobacter aerogenes; experiment: Expected efficacy of antibiotic agents; conditions: expected efficacy against Enterobacter aerogenes
[11] = system: Citrobacter freundii; experiment: Expected efficacy of antibiotic agents; conditions: expected efficacy against Citrobacter freundii
[12] = system: Enterococcus faecium; experiment: Expected efficacy of antibiotic agents; conditions: expected efficacy against Enterococcus faecium
[13] = system: Enterobacter cloacae; experiment: Expected efficacy of antibiotic agents; conditions: expected efficacy against Enterobacter cloacae
[14] = system: Haemophilus ducreyi; experiment: Expected efficacy of antibiotic agents; conditions: expected efficacy against Haemophilus ducreyi
[15] = system: Providencia stuartii; experiment: Expected efficacy of antibiotic agents; conditions: expected efficacy against Providencia stuartii
[16] = system: Corynebacterium urealyticum; experiment: Expected efficacy of antibiotic agents; conditions: expected efficacy against Corynebacterium urealyticum
[17] = system: Neisseria gonorrhoeae; experiment: Expected efficacy of antibiotic agents; conditions: expected efficacy against Neisseria gonorrhoeae
[18] = system: Vibrio cholerae; experiment: Expected efficacy of antibiotic agents; conditions: expected efficacy against Vibrio cholerae
[19] = system: Serratia marcescens; experiment: Expected efficacy of antibiotic agents; conditions: expected efficacy against Serratia marcescens
[20] = system: Shigella dysenteriae; experiment: Expected efficacy of antibiotic agents; conditions: expected efficacy against Shigella dysenteriae
[21] = system: Corynebacterium jeikeium; experiment: Expected efficacy of antibiotic agents; conditions: expected efficacy against Corynebacterium jeikeium
[22] = system: Enterobacter sakazakii; experiment: Expected efficacy of antibiotic agents; conditions: expected efficacy against Enterobacter sakazakii
[23] = system: Clostridium perfringens; conditions: expected efficacy against Clostridium perfringens
[24] = system: Diphtheroids; experiment: Expected efficacy of antibiotic agents; conditions: expected efficacy against Diphtheroids
[25] = system: Providencia rettgeri; experiment: Expected efficacy of antibiotic agents; conditions: expected efficacy against Providencia rettgeri
[26] = system: Acinetobacter calcoaceticus; experiment: Expected efficacy of antibiotic agents; conditions: expected efficacy against Acinetobacter calcoaceticus
[27] = system: Rickettsiae; conditions: expected efficacy against Rickettsiae
[28] = system: Moraxella catarrhalis; experiment: Expected efficacy of antibiotic agents; conditions: expected efficacy against Moraxella catarrhalis
[29] = system: Campylobacter jejuni; experiment: Expected efficacy of antibiotic agents; conditions: expected efficacy against Campylobacter jejuni
[30] = system: Staphylococcus aureus (MSSA); experiment: Expected efficacy of antibiotic agents; conditions: expected efficacy against Staphylococcus aureus (MSSA)
[31] = system: Citrobacter diversus; experiment: Expected efficacy of antibiotic agents; conditions: expected efficacy against Citrobacter diversus
[32] = system: Legionella pneumophila; conditions: expected efficacy against Legionella pneumophila
[33] = system: Haemophilus parainfluenzae; experiment: Expected efficacy of antibiotic agents; conditions: expected efficacy against Haemophilus parainfluenzae
[34] = system: Bordetella pertussis; experiment: Expected efficacy of antibiotic agents; conditions: expected efficacy against Bordetella pertussis
[35] = system: Acinetobacter lwoffii; experiment: Expected efficacy of antibiotic agents; conditions: expected efficacy against Acinetobacter lwoffii
[36] = system: Shigella sonnei; experiment: Expected efficacy of antibiotic agents; conditions: expected efficacy against Shigella sonnei
[37] = system: Streptococcus pyogenes; experiment: Expected efficacy of antibiotic agents; conditions: expected efficacy against Streptococcus pyogenes
[38] = system: Neisseria meningitidis; experiment: Expected efficacy of antibiotic agents; conditions: expected efficacy against Neisseria meningitidis
[39] = system: Staphylococcus epidermidis; experiment: Expected efficacy of antibiotic agents; conditions: expected efficacy against Staphylococcus epidermidis
[40] = system: Salmonella typhi; experiment: Expected efficacy of antibiotic agents; conditions: expected efficacy against Salmonella typhi
[41] = system: Klebsiella pneumoniae; experiment: Expected efficacy of antibiotic agents; conditions: expected efficacy against Klebsiella pneumoniae
[42] = system: Streptococcus pneumoniae; experiment: Expected efficacy of antibiotic agents; conditions: expected efficacy against Streptococcus pneumoniae
[43] = system: Klebsiella (Calymmatobacterium) granulomatis; experiment: Expected efficacy of antibiotic agents; conditions: expected efficacy against Klebsiella (Calymmatobacterium) granulomatis
[44] = system: Francisella tularensis; conditions: expected efficacy against Francisella tularensis
[45] = system: Enterococcus faecalis; experiment: Expected efficacy of antibiotic agents; conditions: expected efficacy against Enterococcus faecalis
[46] = system: Acinetobacter baumannii; experiment: Expected efficacy of antibiotic agents; conditions: expected efficacy against Acinetobacter baumannii
[47] = system: Shigella flexneri; experiment: Expected efficacy of antibiotic agents; conditions: expected efficacy against Shigella flexneri
[48] = system: Haemophilus influenzae; experiment: Expected efficacy of antibiotic agents; conditions: expected efficacy against Haemophilus influenzae
[49] = system: Yersinia pestis; conditions: expected efficacy against Yersinia pestis
[50] = system: Escherichia coli; experiment: Expected efficacy of antibiotic agents; conditions: expected efficacy against Escherichia coli
[51] = system: Peptostreptococcus; experiment: Expected efficacy of antibiotic agents; conditions: expected efficacy against Peptostreptococcus
[52] = system: Mycoplasma pneumoniae; experiment: Expected efficacy of antibiotic agents; conditions: expected efficacy against Mycoplasma pneumoniae
[53] = system: Methicillin resistant staph aureus (MRSA); experiment: Expected efficacy of antibiotic agents; conditions: expected efficacy against Methicillin resistant staph aureus (MRSA)
[54] = system: Chlamydia pneumoniae; experiment: Expected efficacy of antibiotic agents; conditions: expected efficacy against Chlamydia pneumoniae
[55] = system: Morganella morganii; experiment: Expected efficacy of antibiotic agents; conditions: expected efficacy against Morganella morganii
[56] = system: Proteus mirabilis; experiment: Expected efficacy of antibiotic agents; conditions: expected efficacy against Proteus mirabilis
[57] = system: Chlamydia trachomatis; experiment: Expected efficacy of antibiotic agents; conditions: expected efficacy against Chlamydia trachomatis
[58] = system: Pseudomonas fluorescens; experiment: Expected efficacy of antibiotic agents; conditions: expected efficacy against Pseudomonas fluorescens
[59] = system: Brucella species; conditions: expected efficacy against Brucella species

In the case of `CO/N=C(\C(=O)N[C@@H]1C(=O)N2C(C(=O)O)=C(CSc3nc(=O)c(=O)[nH]n3C)CS[C@H]12)c1csc(N)n1` [Ceftriaxone, ceftriaxone], the Efficacy [1] is reported as “yes”, the Efficacy [2] is reported as “yes” and the Efficacy [3] is reported as “yes”. For the same molecule, the Efficacy [4] was “no”, the Efficacy [5] was “yes” and the Efficacy [6] was “yes”. For the same molecule, the Efficacy [7] was “yes”, the Efficacy [8] was “no” and the Efficacy [9] was “no”. The Efficacy [10] was “yes”, the Efficacy [11] was “yes” and the Efficacy [12] was “no”. The Efficacy [13] was “yes”, the Efficacy [14] was “yes” and the Efficacy [15] was “yes”. For the same molecule, the Efficacy [16] was “no”, the Efficacy [17] was “yes” and the Efficacy [18] was “no”. The Efficacy [19] was “yes”, the Efficacy [20] was “yes” and the Efficacy [21] was “no”. For the same molecule, the Efficacy [22] was “yes”, the Efficacy [23] was “yes” and the Efficacy [24] was “no”. The Efficacy [25] was “yes”, the Efficacy [26] was “no” and the Efficacy [27] was “no”. For the same molecule, the Efficacy [28] was “yes”, the Efficacy [29] was “no” and the Efficacy [30] was “yes”. For the same molecule, the Efficacy [31] was “yes”, the Efficacy [32] was “no” and the Efficacy [33] was “yes”. The Efficacy [34] was “no”, the Efficacy [35] was “no” and the Efficacy [36] was “yes”. For the same molecule, the Efficacy [37] was “yes”, the Efficacy [38] was “yes” and the Efficacy [39] was “yes”. For the same molecule, the Efficacy [40] was “yes”, the Efficacy [41] was “yes” and the Efficacy [42] was “yes”. For the same molecule, the Efficacy [43] was “yes”, the Efficacy [44] was “no” and the Efficacy [45] was “no”. The Efficacy [46] was “no”, the Efficacy [47] was “yes” and the Efficacy [48] was “yes”. For the same molecule, the Efficacy [49] was “no”, the Efficacy [50] was “yes” and the Efficacy [51] was “yes”. The Efficacy [52] was “no”, the Efficacy [53] was “no” and the Efficacy [54] was “no”. The Efficacy [55] was “yes”, the Efficacy [56] was “yes” and the Efficacy [57] was “no”.

In the case of `NC[C@H]1O[C@H](O[C@H]2[C@H](O)[C@@H](O[C@H]3O[C@H](CO)[C@@H](O)[C@H](N)[C@H]3O)[C@H](N)C[C@@H]2N)[C@H](N)C[C@@H]1O` [Tobramycin, tobramycin], the Efficacy [1] is reported as “no”, the Efficacy [2] is reported as “yes” and the Efficacy [3] is reported as “no”. The Efficacy [4] was “no”, the Efficacy [5] was “no” and the Efficacy [6] was “yes”. The Efficacy [7] was “yes”, the Efficacy [8] was “no” and the Efficacy [9] was “yes”. The Efficacy [10] was “yes”, the Efficacy [11] was “yes” and the Efficacy [12] was “no”. The Efficacy [13] was “yes”, the Efficacy [14] was “yes” and the Efficacy [16] was “no”. For the same molecule, the Efficacy [17] was “no”, the Efficacy [18] was “no” and the Efficacy [19] was “yes”. The Efficacy [20] was “yes”, the Efficacy [21] was “no” and the Efficacy [22] was “yes”. The Efficacy [58] was “yes”, the Efficacy [23] was “no” and the Efficacy [24] was “no”. For the same molecule, the Efficacy [26] was “no”, the Efficacy [28] was “yes” and the Efficacy [29] was “yes”. For the same molecule, the Efficacy [30] was “no”, the Efficacy [31] was “yes” and the Efficacy [32] was “no”. The Efficacy [34] was “no”, the Efficacy [35] was “no” and the Efficacy [36] was “yes”. The Efficacy [37] was “no”, the Efficacy [38] was “no” and the Efficacy [39] was “no”. For the same molecule, the Efficacy [41] was “yes”, the Efficacy [42] was “no” and the Efficacy [43] was “yes”. For the same molecule, the Efficacy [45] was “no”, the Efficacy [46] was “no” and the Efficacy [47] was “yes”. The Efficacy [48] was “yes”, the Efficacy [49] was “yes” and the Efficacy [50] was “yes”. The Efficacy [51] was “no”, the Efficacy [52] was “no” and the Efficacy [53] was “no”. The Efficacy [54] was “no”, the Efficacy [56] was “yes” and the Efficacy [57] was “no”.

In the case of Colistimethate, the Efficacy [1] is reported as “no”, the Efficacy [2] is reported as “yes” and the Efficacy [3] is reported as “no”. The Efficacy [4] was “no”, the Efficacy [5] was “no” and the Efficacy [6] was “no”. For the same molecule, the Efficacy [8] was “no”, the Efficacy [9] was “yes” and the Efficacy [10] was “yes”. For the same molecule, the Efficacy [12] was “no”, the Efficacy [13] was “yes” and the Efficacy [15] was “no”. For the same molecule, the Efficacy [16] was “no”, the Efficacy [17] was “no” and the Efficacy [18] was “no”. For the same molecule, the Efficacy [19] was “no”, the Efficacy [21] was “no” and the Efficacy [22] was “yes”. For the same molecule, the Efficacy [58] was “yes”, the Efficacy [24] was “no” and the Efficacy [25] was “no”. For the same molecule, the Efficacy [28] was “no”, the Efficacy [30] was “no” and the Efficacy [32] was “no”. For the same molecule, the Efficacy [33] was “no”, the Efficacy [34] was “no” and the Efficacy [37] was “no”. For the same molecule, the Efficacy [38] was “no”, the Efficacy [39] was “no” and the Efficacy [41] was “yes”. For the same molecule, the Efficacy [42] was “no”, the Efficacy [43] was “yes” and the Efficacy [45] was “no”. The Efficacy [50] was “yes”, the Efficacy [51] was “no” and the Efficacy [52] was “no”. The Efficacy [53] was “no”, the Efficacy [59] was “no” and the Efficacy [54] was “no”. For the same molecule, the Efficacy [56] was “no” and the Efficacy [57] was “no”.
